Measured values from paper PMC12700101 (2025).

Experiments:
[1] = test system: Dopamine DBS Cy3–BHQ-1 (Position 2) (DNA, aptamer) AAATACAACAAGAAAAAACTCTCGGGACGACGACCAGTTTGAAGGTTCGTTCGCAGGTGTGGAGTGACGTCGTCCC; assay: fluorescence strand-displacement titration; conditions: 1x PBS, 2 mM MgCl2; apparent; pH 8.0, 25 °C; displaced 42-nt strand, internal BHQ-1 (position 2), 4 eq
[2] = test system: Dopamine DBS Cy3/BHQ-1 (int.) (DNA, aptamer) AAATACAACAAGAAAAAACTCTCGGGACGACGCCAGTTTGAAGGTTCGTTCGCAGGTGTGGAGTGACGTCGTCCC; assay: fluorescence melting; conditions: 1x PBS, 2 mM MgCl2; pH 8.0; 50 µM dopamine; derived from two Tm (50.9, 50.4); displacement strand 1:4
[3] = test system: Dopamine DBS Cy3(+T)/BHQ-1 (DNA, aptamer) AAATACAACAAGAAAAAACTCTCGGGACGACGTCCAGTTTGAAGGTTCGTTCGCAGGTGTGGAGTGACGTCGTCCC; assay: fluorescence melting; conditions: 1x PBS, 2 mM MgCl2; pH 8.0; 50 µM dopamine; derived from two Tm (51.6, 50.9); displacement strand 1:4
[4] = test system: Dopamine DBS Cy3–BHQ-1 (Term.) (DNA, aptamer) AAATACAACAAGAAAAAACTCTCGGGACGACGACCAGTTTGAAGGTTCGTTCGCAGGTGTGGAGTGACGTCGTCCC; assay: fluorescence strand-displacement titration; conditions: 1x PBS, 2 mM MgCl2; apparent; pH 8.0, 25 °C; displaced 43-nt strand, 5'-BHQ-1 plus T, 4 eq
[5] = test system: Dopamine DBS Cy3/BHQ-1 (term.) (DNA, aptamer) AAATACAACAAGAAAAAACTCTCGGGACGACGCCAGTTTGAAGGTTCGTTCGCAGGTGTGGAGTGACGTCGTCCC; assay: fluorescence melting; conditions: 1x PBS, 2 mM MgCl2; pH 8.0; 50 µM dopamine; derived from two Tm (51.2, 50.6); displacement strand 1:4
[6] = test system: Dopamine DBS FAM(+T)/BHQ-1 (term.) (DNA, aptamer, 6-FAM-modified dT (click, i6-FAMK) at 33) AAATACAACAAGAAAAAACTCTCGGGACGACGTCCAGTTTGAAGGTTCGTTCGCAGGTGTGGAGTGACGTCGTCCC; assay: fluorescence melting; conditions: 1x PBS, 2 mM MgCl2; pH 8.0; 50 µM dopamine; derived from two Tm (48.4, 48.3); displacement strand 1:4

- Kd [1]: 2.2 ± 0.7 µM
- Tm [2]: -0.5 °C
- Tm [3]: -0.7 °C
- Kd [4]: 142.9 ± 11.7 µM
- Tm [5]: -0.6 °C
- Tm [6]: -0.1 °C
Compound: NCCc1ccc(O)c(O)c1
